# Source: patent US11136370B2, “Compositions and methods for thrombin generation assay” (The Scripps Research Institute, priority 2016, dated 2021)
# What was measured:
# thrombin generation (TG) [1] = type: biochemical, human
# Protocol: TG in PRP or reconstituted PRP was evaluated as known to those skilled in the art. Native PRP was prepared from blood collected into final 12.9 mM trisodium citrate by centrifugation at 250 g for 10 min at 25° C. The platelet count was adjusted to 180×10^3/μl by dilution with homologous PPP obtained by centrifuging PRP for 10 min at 1,500 g. CTI was added at 30-50 μg/ml depending on calibrated potency as assessed by FXIIa inhibition. Reconstituted PRP was prepared with washed platelets prepared from normal PRP by adding ⅕th volume of acid citrate-dextrose (71 mM citric acid, 85 mM trisodium citrate, and 111 mM dextrose, pH 4.5) and 5 U/ml apyrase; following centrifugation at 1,500 g for 10 minutes at 25° C., the platelet pellet was resuspended into PPP lacking FVII (George King Bio-Medical) or FIX (Haematologic Technologies) to give a final platelet count of 180·103/μl PRP was mixed with varying concentrations of rTF and/or 20 pM FIXa in 96-well microtiter plates. The reaction was started by adding 18 mM CaCl2 with 360 μM of the thrombin substrate benzyloxycarbonyl-glycyl-glycyl-L-arginine coupled to the fluorogenic group 7-amido-4-methylcoumarin (Gly-Gly-Arg-AMC; Bachem Americas, Torrance, Calif.). Fluorescence was measured continuously at 37° C. for up to 40 min in a spectrofluorometer (355/460 nm excitation/emission). The rate of fluorescence intensity increase as a function of time (dF/dt) was calculated with Turbo Delphi 2006 (Borland Software Corporation, Austin, Tex.) and converted to thrombin-equivalent concentration (nM) using a calibration curve. The endogenous thrombin potential (ETP) of samples, i.e. total generated thrombin activity, was determined from the area under the TG curve. When specified, TG was measured with a discontinuous 2-stage assay with a detection limit of 5 pM. For this, TG was induced by 0.15 pM rTF and 18 mM CaCl2 in reconstituted FVII-deficient PRP including 30 μg/ml CTI with 400 pM WT FVIIa or iFVIIa without or with 20 pM FIXa. After incubation for up to 11 min at 37° C., reactions were terminated by adding 20 mM EDTA and generated thrombin was measured using the highly sensitive thrombin substrate H-D-CHA-Ala-Arg-AMC.2AcOH (Pefafluor TH, Pentapharm, Basel, Switzerland) at 50 μM concentration. In other experiments, TG was induced by TFiFVIIa-FXa-TFPI or TF-iFVIIa-FXa-NAPc2. These stable complexes were pre-formed by incubating 5 nM FXa, 10 nM TF, 10 nM iFVIIa and 40 nM TFPI or NAPc2 in the presence of 2.5 mM CaCl2 for 2 min at 37° C. Complexes were added into FVII-deficient PRP, followed by incubation for 8 min at 37° C.
# PRP was prepared from blood collected into trisodium citrate (final concentration 0.0129 M) by centrifugation for at 250 g for 10 min at 25° C.; the platelet count was adjusted at 180.103 per μl by diluting with homologous platelet-poor plasma (PPP) obtained by centrifuging PRP for an additional 10 min at 1,500 g. When indicated, CTI was added at 30 to 50 μg/ml depending on calibrated potency measured by FXIIa inhibition. Reconstituted PRP was prepared by adding normal washed platelets into PPP (without or with CTI) lacking FVII, FVIII (both from George King Bio-Medical, Overland Park, Kans.) or FIX (Haematologic Technologies). […] generation in PRP was measured as described by Hemker et al. 53 μl of PRP was mixed in 96-well microtiter plates with 15 μl of a solution containing rTF and/or one of the intrinsic coagulation pathway proteases—FXIIa, FXIa or FIXa—to achieve the indicated final concentrations. Antibodies or inhibitors were also added at this point at the concentration indicated for each specific case. The reaction was started by adding between 15 and 20 μl of 100 mM CaCl2 and 2 mM fluorogenic substrate, benzyloxycarbonyl-glycyl-glycyl-L-arginine-7-amido-4-methylcoumarin (Gly-Gly-Arg-AMC; Bachem Americas, Torrance, Calif.).
# [2] = full anticoagulant dosage; cited from earlier work
# [3] = target: T1, pre-activated FXa either free or in a NAPc2-stabilized complex with TF-iFVIIa (Homo sapiens, UniProt P00742); test: FVIII activation (FVIIIa generation, WB) by pre-activated FXa, free or in NAPc2-stabilized complex; type: biochemical; details: therapeutic concentrations, 50-450 nM
# T1 construct: purchased Haematologic Technologies (FXa); Siemens Healthcare Diagnostics (rTF, Dade Innovin)
# T1 sequence (P00742 41-179 limits assumed): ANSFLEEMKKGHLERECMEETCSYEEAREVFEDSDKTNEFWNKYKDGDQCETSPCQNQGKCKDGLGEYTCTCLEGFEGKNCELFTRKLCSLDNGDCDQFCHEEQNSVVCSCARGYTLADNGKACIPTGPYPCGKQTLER
# T1 sequence (P00742 235-488 limits assumed): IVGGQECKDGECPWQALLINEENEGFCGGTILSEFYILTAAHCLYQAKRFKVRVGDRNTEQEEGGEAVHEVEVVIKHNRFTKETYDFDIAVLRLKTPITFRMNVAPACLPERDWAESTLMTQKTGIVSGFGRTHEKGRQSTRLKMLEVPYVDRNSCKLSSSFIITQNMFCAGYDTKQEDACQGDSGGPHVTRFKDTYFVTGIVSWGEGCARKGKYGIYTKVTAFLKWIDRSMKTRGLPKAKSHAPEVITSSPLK
# Protocol: (D) WB analysis (representing 2) of FVIIIa generation by pre-activated or de novo generated FXa and its inhibition by increasing concentrations of AT/penta. Reactions (37° C.) initiated by 200 pM FXa or 20 pM FVIIa with 50 nM FX into mixtures of 400 pM TF, 0.7 nM FVIII, 200 nM lepirudin without (top, incubation 60 s) or with (bottom, incubation 120 s) 3 nM FV/50 nM FIX. (E) Quantification (relative to non-inhibited control) of FVIIIa generated as in D (bottom) calibrated with known FVIIIa quantities (n=6-8 by nascent FXa, 4-6 by pre-formed FXa). […]
# Coagulation reaction products were separated by reducing sodium dodecyl sulfate-polyacrylamide gel electrophoresis (SDS-PAGE), except for the analysis of FVIII activation in the presence of anti-FVIIa MoAbs that was performed under non-reducing conditions. […] Quantitative infrared detection of FVIIIa and FVa was obtained with IRDye 800CW-conjugated anti-mouse IgG or streptavidin followed by analysis with the Odyssey infrared imager (Li-COR, Lincoln, Nebr.). Concentrations were calculated by calibration with known quantities of FVIIIa and FVa. […]
# thrombin generation (TG) [4] = test: TG in reactions with purified components (FVIIa, FIXa, rTF, FX, FV, prothrombin, TFPIα); type: biochemical, human; details: therapeutic doses
# Protocol: Thrombin was quantified with a fluorogenic substrate for calculation of % inhibition. […] Reactions were initiated by 100 pM FXa with 50 pM rTF as the phospholipid surface (top); or the preformed complex of 50 pM TF, 100 pM iFVIIa, 100 pM FXa, 5 nM NAPc2 (middle); or 50 pM TF/200 pM FVIIa/135 nM FX (bottom) in mixtures of 0.7 nM FVIII, 3 nM FV, 200 nM lepirudin, 10 nM TFPI, and 2.5 mM CaCl2 incubated for 120 s at 37° C. […] (n=3-4). […] Endogenous thrombin potential (ETP, right) was calculated from the area under the TG curve (n=2). Results in (E) and (F) are shown as 25th-75th percentile bars with min to max whiskers or min to max bars (when n≤3) with a line at the median. Differences were evaluated with the ANOVA/Tukey test (performed after log 10 transformation of the data shown in E); *P<0.05, ***P<0.001.
# The synthetic reaction mixtures comprised 0.7 nM FVIII, 3 nM FV, 135 nM FX, 104 prothrombin in 50 mM Tris-buffered saline, pH 7.4, with 0.1% BSA. […] Reactions to prevent thrombin effects were carried out in the presence of 200 nM lepirudin or 4 μM DAPA. […] Generation of FXa, FIIa and thrombin were evaluated by measuring amidolytic activity toward the chromogenic substrate S-2765 (180 μM; N-α-benzyloxycarbonyl-D-arginyl-L-glycyl-L-arginine-p-nitroaniline; DiaPharma, West Chester, Ohio) and the fluorogenic substrate Z-Gly-Gly-Arg-AMC (360 μM) respectively.
# [5] = Plasma concentration in treated patients; type: in vivo; details: human, oral, n=10, 2 hours after drug intake
# [6] = target: T2, ternary TF-FVIIa-FXa complex (Homo sapiens, UniProt P00742); test: FV activation (FVa generation, WB) by TF-FVIIa with FX; type: biochemical; details: clinically relevant concentrations
# T2 construct: purchased Haematologic Technologies (FX); Siemens Healthcare Diagnostics (rTF); FVIIa made in house
# T2 sequence (P00742 41-179 limits assumed): as the sequence (P00742 41-179 limits assumed) above
# T2 sequence (P00742 235-488 limits assumed): as the sequence (P00742 235-488 limits assumed) above
# Protocol: (A) Phospholipid-free assay of FX (1 μM) to FXa conversion by the complex of 2 μM soluble rTF with 10 nM FVIIa WT, T99Y or E154A. (B) FXa generation by 50 pM phospholipid-reconstituted rTF with 200 pM FVIIa WT, T99Y or E154A added to 135 nM FX, 0.7 nM FVIII, 3 nM FV and 200 nM lepirudin (2 min, n=2-3; 4 min, n=4-5; 6 min, n=6-9). (C) WB (representing 2) of FVIII activation in reactions of 50 pM TF, 200 pM FVIIa WT or mutants, 0.7 nM FVIII, 3 nM FV and 200 nM lepirudin without/with 135 nM FX, incubated for 120 s at 37° C. […] (E) FXa generation measured in reactions as in (D) without TFPIα and in the presence of 10 nM FIXa (left, incubation 180 s; n=5-6 except=2 for E154A) or 90 nM FIX (right, incubation for 360 s; n=5-6). […] Differences were evaluated by the ANOVA/Tukey test; results at 4 and 6 min in (B) and in reactions with FIX in (E, right) were analyzed after transformation as y=log 10 y (**P<0.01, ***P<0.001).
# Time-course (mean±SEM) of 1 μM FX activation by 2 μM phospholipid-free soluble recombinant TF with 10 nM FVIIa WT (n=4-7), T99Y (n=2-3) or E154A mutants (n=3-4); incubation at 37° C. […] FVIIIa activity (25th-75th percentile bars, min to max whiskers, line at the median) generated as in (B), but without TFPIα, measured as FXa produced by 10 nM FIXa (n=9 for FVIIa WT and T99Y; n=5 for E154A). **P<0.01, ***P<0.001) by ANOVA/Tukey tests. […]
# FXa V17M mutant = target: T3, FXa V17M mutant (Homo sapiens, UniProt P00742, V236M); test: FVIIIa generation by FXa V17M in stable complex with TF-iFVIIa-NAPc2; type: biochemical; details: up to 5 nM rivaroxaban
# T3 construct: TF-associated FVIIa has converted FX into FXa active protease
# T3 sequence (P00742 41-179): as the sequence (P00742 41-179 limits assumed) above
# T3 sequence (P00742 235-488 V236M): as the sequence (P00742 235-488 limits assumed) above, with V2M counted along it
smiles,measurement,setting,value
O=C(NC[C@H]1CN(c2ccc(N3CCOCC3=O)cc2)C(=O)O1)c1ccc(Cl)s1 [Rivaroxaban],inhibition of TG in the presence of MoAb 12C7,thrombin generation (TG) [1]; low rivaroxaban concentrations,more pronounced inhibition
same,difference in dose response between rivaroxaban and apixaban,thrombin generation (TG) [1]; recalcified PRP containing CTI,~3 fold
same,effect on TF-induced thrombin generation,thrombin generation (TG) [1]; recalcified PRP containing CTI,inhibited
same,peak plasma concentration,[2],500 nM
same,inhibition of FVIII activation by pre-activated FXa,[3],~90%
same,effect on TG initiated by TF alone in reactions containing FIXa without FVIII,thrombin generation (TG) [4],inhibited
same,concentration at 2 h,[5],312 nM
same,effect on FVa generation by the ternary TF-FVIIa-FXa complex,[6],blocked
same,effect on FVIIIa generation by FXa V17M,FXa V17M mutant,insensitive
